{"source": "PubChem BioAssay AID1259411", "about": "(Chemical Carcinogenesis Research Information System (CCRIS), 2018)", "tested_on": "rodent carcinogenicity bioassays, tumor incidence", "assay": "CCRIS carcinogenicity studies", "procedure,_shortened": "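NCI-built, expert-reviewed records of carcinogenicity and related test outcomes (mutagenicity, tumor promotion/inhibition) compiled from published and report sources, historical span 1985-2011, not updated.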", "note": "Activity calls are given as the source filed them. How the calls were made is not given here."}
{"smiles": "CBr", "values": [{"measurement": "carcinogen call", "setting": "Species: DOG, Strain/Sex: BEAGLE/FEMALE, Route: ORAL, Dose: 0, 0.07, 0.12, 0.27 MG/KG/D IN DIET FOR 1 YR (STUDY DURATION: 1 YR), Dose: 0, 0.07, 0.12, 0.27 MG/KG/D IN DIET FOR 1 YR (STUDY DURATION: 1 YR)", "value": "inactive; negative"}, {"measurement": "carcinogen call", "setting": "Species: DOG, Strain/Sex: BEAGLE/MALE, Route: ORAL, Dose: 0, 0.06, 0.13, 0.28 MG/KG/D IN DIET FOR 1 YR (STUDY DURATION: 1 YR), Dose: 0, 0.06, 0.13, 0.28 MG/KG/D IN DIET FOR 1 YR (STUDY DURATION: 1 YR)", "value": "inactive; negative"}, {"measurement": "carcinogen call", "setting": "Species: MOUSE, Strain/Sex: B6C3F1/FEMALE, Route: INHALATION, Dose: 0, 10, 33, 100 PPM 6 HR/D 5 D/WK FOR UP TO 103 WK, DOSING IN 100 PPM GROUP DISCONTINUED AFTER 20 WK (STUDY DURATION: 104, Dose: 0, 10, 33, 100 PPM 6 HR/D 5 D/WK FOR UP TO 103 WK, DOSING IN 100 PPM GROUP DISCONTINUED AFTER 20 WK (STUDY DURATION: 104", "value": "inactive; negative"}, {"measurement": "carcinogen call", "setting": "Species: MOUSE, Strain/Sex: B6C3F1/MALE, Route: INHALATION, Dose: 0, 10, 33, 100 PPM 6 HR/D 5 D/WK FOR UP TO 103 WK, DOSING IN 100 PPM GROUP DISCONTINUED AFTER 20 WK (STUDY DURATION: 104, Dose: 0, 10, 33, 100 PPM 6 HR/D 5 D/WK FOR UP TO 103 WK, DOSING IN 100 PPM GROUP DISCONTINUED AFTER 20 WK (STUDY DURATION: 104", "value": "inactive; negative"}, {"measurement": "carcinogen call", "setting": "Species: MOUSE, Strain/Sex: BDF1/FEMALE, Route: INHALATION, Dose: 0, 4, 16, 64 PPM 6 HR/D 5 D/WK FOR 104 WK (STUDY DURATION: 105 WK), Dose: 0, 4, 16, 64 PPM 6 HR/D 5 D/WK FOR 104 WK (STUDY DURATION: 105 WK)", "value": "inactive; negative"}, {"measurement": "carcinogen call", "setting": "Species: MOUSE, Strain/Sex: BDF1/MALE, Route: INHALATION, Dose: 0, 4, 16, 64 PPM 6 HR/D 5 D/WK FOR 104 WK (STUDY DURATION: 105 WK), Dose: 0, 4, 16, 64 PPM 6 HR/D 5 D/WK FOR 104 WK (STUDY DURATION: 105 WK)", "value": "inactive; negative"}, {"measurement": "carcinogen call", "setting": "Species: RAT, Strain/Sex: F344/FEMALE, Route: INHALATION, Dose: 0, 4, 20, 100 PPM 6 HR/D 5 D/WK FOR 104 WK (STUDY DURATION: 105 WK), Dose: 0, 4, 20, 100 PPM 6 HR/D 5 D/WK FOR 104 WK (STUDY DURATION: 105 WK)", "value": "inactive; negative"}, {"measurement": "carcinogen call", "setting": "Species: RAT, Strain/Sex: F344/FEMALE, Route: ORAL", "value": "inactive; negative"}, {"measurement": "carcinogen call", "setting": "Species: RAT, Strain/Sex: F344/MALE, Route: INHALATION, Dose: 0, 4, 20, 100 PPM 6 HR/D 5 D/WK FOR 104 WK (STUDY DURATION: 105 WK), Dose: 0, 4, 20, 100 PPM 6 HR/D 5 D/WK FOR 104 WK (STUDY DURATION: 105 WK)", "value": "inactive; negative"}, {"measurement": "carcinogen call", "setting": "Species: RAT, Strain/Sex: F344/MALE, Route: ORAL", "value": "inactive; negative"}, {"measurement": "carcinogen call", "setting": "Species: RAT, Strain/Sex: WISTAR/FEMALE, Route: GAVAGE, Dose: 0.4, 2, 10, 50 MG/KG IN ARACHIS OIL 5/WK FOR 13 WK, Dose: 0.4, 2, 10, 50 MG/KG IN ARACHIS OIL 5/WK FOR 13 WK, Tumor Site: Type of Lesion: FORESTOMACH: CARCINOMA", "value": "active; positive"}, {"measurement": "carcinogen call", "setting": "Species: RAT, Strain/Sex: WISTAR/FEMALE, Route: INHALATION, Dose: 0, 3, 30, 90 PPM 6 HR/D 5 D/WK FOR 29 MO (STUDY DURATION: 29 MO), Dose: 0, 3, 30, 90 PPM 6 HR/D 5 D/WK FOR 29 MO (STUDY DURATION: 29 MO)", "value": "inactive; negative"}, {"measurement": "carcinogen call", "setting": "Species: RAT, Strain/Sex: WISTAR/MALE, Route: GAVAGE, Dose: 0.4, 2, 10, 50 MG/KG IN ARACHIS OIL 5/WK FOR 13 WK, Dose: 0.4, 2, 10, 50 MG/KG IN ARACHIS OIL 5/WK FOR 13 WK, Tumor Site: Type of Lesion: FORESTOMACH: PAPILLOMA, CARCINOMA", "value": "active; positive"}, {"measurement": "carcinogen call", "setting": "Species: RAT, Strain/Sex: WISTAR/MALE, Route: INHALATION, Dose: 0, 3, 30, 90 PPM 6 HR/D 5 D/WK FOR 29 MO (STUDY DURATION: 29 MO), Dose: 0, 3, 30, 90 PPM 6 HR/D 5 D/WK FOR 29 MO (STUDY DURATION: 29 MO)", "value": "inactive; negative"}]}
{"smiles": "O=[N+]([O-])c1ccc2ccc3c([N+](=O)[O-])ccc4ccc1c2c43", "values": [{"measurement": "carcinogen call", "setting": "Species: HAMSTER, Strain/Sex: SYRIAN/FEMALE, Route: INTRATRACHEAL, Dose: 0, 0.5 MG IN 0.2 ML OF SALINE 1/WK FOR 26 WK (STUDY DURATION: 48 WK), Tumor Site: Type of Lesion: LUNG: ADENOCARCINOMA, HEMATOPOIETIC SYSTEM: LEUKEMIA", "value": "active; positive"}, {"measurement": "carcinogen call", "setting": "Species: HAMSTER, Strain/Sex: SYRIAN/MALE, Route: INTRAPERITONEAL, Dose: 0, 0.5 MG IN 0.2 ML OF SALINE 1/WK FOR 26 WK (STUDY DURATION: 48 WK), Tumor Site: Type of Lesion: LUNG: ADENOCARCINOMA, HEMATOPOIETIC SYSTEM: LEUKEMIA", "value": "active; positive"}, {"measurement": "carcinogen call", "setting": "Species: MOUSE, Strain/Sex: BALB/MALE, Route: SUBCUTANEOUS, Dose: 0, 0.1 MG IN DMSO 1/WK FOR 20 WK (STUDY DURATION: 60 WK), Tumor Site: Type of Lesion: INJECTION SITE: TUMOR", "value": "active; positive"}, {"measurement": "carcinogen call", "setting": "Species: RAT, Strain/Sex: F344/MALE, Route: SUBCUTANEOUS, Dose: 0, 0.2 MG 2/WK FOR 10 WK (STUDY DURATION: 320 D), Tumor Site: Type of Lesion: INJECTION SITE: SARCOMA", "value": "active; positive"}, {"measurement": "carcinogen call", "setting": "Species: RAT, Strain/Sex: F344/NS1C/MALE, Route: PULMONARY IMPLANT, Dose: 0, 0.003, 0.01, 0.03, 0.1, 0.15 MG AS A SUSPENSION IN EQUAL VOL OF BEESWAX AND TRICAPRYLIN IMPLANTED IN LEFT LUNG (STUDY, Dose: 0, 0.003, 0.01, 0.03, 0.1, 0.15 MG AS A SUSPENSION IN EQUAL VOL OF BEESWAX AND TRICAPRYLIN IMPLANTED IN LEFT LUNG (STUDY, Tumor Site: Type of Lesion: LUNG: TUMOR", "value": "active; positive"}, {"measurement": "carcinogen call", "setting": "Species: RAT, Strain/Sex: STRAIN CD/FEMALE, Route: INTRAGASTRIC, Dose: 0, 10 UMOL IN DMSO 3/WK FOR 4 WK (TOTAL DOSE: 16 UMOL/RAT) (STUDY DURATION: 78 WK), Tumor Site: Type of Lesion: PITUITARY GLAND: CARCINOMA", "value": "active; positive"}, {"measurement": "carcinogen call", "setting": "Species: RAT, Strain/Sex: STRAIN CD/FEMALE, Route: INTRAPERITONEAL, Dose: 0, 10 UMOL IN DMSO 3/WK FOR 4 WK (TOTAL DOSE; 16 UMOL/RAT) (STUDY DURATION; 78 WK), Dose: 0, 10 UMOL IN DMSO 3/WK FOR 4 WK (TOTAL DOSE; 16 UMOL/RAT) (STUDY DURATION; 78 WK), Tumor Site: Type of Lesion: HEMATOPOIETIC SYSTEM: HISTIOCYTOMA", "value": "active; positive"}, {"measurement": "carcinogen call", "setting": "Species: RAT, Strain/Sex: STRAIN-CD/FEMALE, Route: SUBCUTANEOUS, Dose: 0, 6.3 UMOL (TOTAL DOSE) ADMINISTERED OVER 8 WK BEGINNING ON DAY OF BIRTH (STUDY DURATION: 67 WK), Tumor Site: Type of Lesion: INTEGUMENTARY SYSTEM: MALIGNANT FIBROUS HISTIOCYTOMA, HEMATOPOIETIC SYSTEM: LEUKEMIA", "value": "active; positive"}]}
{"smiles": "CCCO", "values": [{"measurement": "carcinogen call", "setting": "Species: DOG, Strain/Sex: BEAGLE/FEMALE, Route: GAVAGE, Dose: 0, 30, 180 MG/KG/D 7 D/WK FOR 52 WK (STUDY DURATION: 52 WK), Dose: 0, 30, 180 MG/KG/D 7 D/WK FOR 52 WK (STUDY DURATION: 52 WK)", "value": "inactive; negative"}, {"measurement": "carcinogen call", "setting": "Species: DOG, Strain/Sex: BEAGLE/MALE, Route: GAVAGE, Dose: 0, 30, 180 MG/KG/D 7 D/WK FOR 52 WK (STUDY DURATION: 52 WK), Dose: 0, 30, 180 MG/KG/D 7 D/WK FOR 52 WK (STUDY DURATION: 52 WK)", "value": "inactive; negative"}, {"measurement": "carcinogen call", "setting": "Species: MONKEY, Strain/Sex: MACACA ARCTODIES/MALE, Route: ORAL, Dose: 0, 0.25, 2.5, 25 MG/KG 1/D FOR 54 WK (STUDY DURATION: 54 WK), Dose: 0, 0.25, 2.5, 25 MG/KG 1/D FOR 54 WK (STUDY DURATION: 54 WK)", "value": "inactive; negative"}, {"measurement": "carcinogen call", "setting": "Species: MOUSE, Strain/Sex: SWISS/FEMALE, Route: GAVAGE, Dose: 0, 50, 500 MG/KG/D FOR 18 MO (STUDY DURATION: 18 MO), Dose: 0, 50, 500 MG/KG/D FOR 18 MO (STUDY DURATION: 18 MO)", "value": "inactive; negative"}, {"measurement": "carcinogen call", "setting": "Species: MOUSE, Strain/Sex: SWISS/MALE, Route: GAVAGE, Dose: 0, 50, 500 MG/KG/D FOR 18 MO (STUDY DURATION: 18 MO), Dose: 0, 50, 500 MG/KG/D FOR 18 MO (STUDY DURATION: 18 MO)", "value": "inactive; negative"}, {"measurement": "carcinogen call", "setting": "Species: RAT, Strain/Sex: SPRAGUE-DAWLEY/FEMALE, Route: GAVAGE, Dose: 0, 50, 500 MG/KG 1/D FOR 24 MO (STUDY DURATION: 24 MO), Dose: 0, 50, 500 MG/KG 1/D FOR 24 MO (STUDY DURATION: 24 MO)", "value": "inactive; negative"}, {"measurement": "carcinogen call", "setting": "Species: RAT, Strain/Sex: SPRAGUE-DAWLEY/MALE, Route: GAVAGE, Dose: 0, 50, 500 MG/KG 1/D FOR 24 MO (STUDY DURATION: 24 MO), Dose: 0, 50, 500 MG/KG 1/D FOR 24 MO (STUDY DURATION: 24 MO)", "value": "inactive; negative"}]}
{"smiles": "[Ni]=[Te]", "values": [{"measurement": "carcinogen call", "setting": "Species: RAT, Strain/Sex: F344/MALE, Route: INTRAMUSCULAR, Tumor Site: Type of Lesion: INJECTION SITE: SARCOMA", "value": "active; positive"}]}
{"smiles": "O=C1NC(=O)C(=O)C(=O)N1", "values": [{"measurement": "carcinogen call", "setting": "Species: Rat, Strain/Sex: WBN/Kob (Diabetic)/Female (17/group), Route: Intravenous, Dose: 0, 40 mg/kg once, study duration 75 wks, Tumor Site: Type of Lesion: Forestomach: squamous cell carcinoma", "value": "active; positive"}, {"measurement": "carcinogen call", "setting": "Species: Rat, Strain/Sex: WBN/Kob (Diabetic)/Male (31/ group), Route: Intravenous, Dose: 0, 50 mg/kg once, study duration 75 wks, Tumor Site: Type of Lesion: Forestomach: squamous cell carcinoma", "value": "active; positive"}]}
